No end group written: not given here.
Assays:
[1] = biological target: T1, I-HBD (hepcidin binding domain of ferroportin) (Homo sapiens, UniProt Q9NP59); assay: Competition with 125I-hepcidin for binding to I-HBD beads
T1 construct: made in house; host or cells: chemical synthesis
Description: FIGS. 2A-C illustrates that the binding of ^125I-hepcidin to HBD is specific and temperature dependent. In FIG. 2A peptides (HBD, scrambled-HBD or mutant (C326Y HBD) were conjugated to beads and ^125I-hepcidin was added to the bead-immobilized peptides (I-HBD) for 18 hours at 37° C. (black bars) or 4° C. (grey bars). The beads were washed and the amount of ^125I-hepcidin bound to the I-HBD was determined. In FIG. 2B a sub saturating concentration of ^125I-hepcidin (0.6 μg/ml) was incubated with I-HBD for 18 hours at 37° C. in the presence or absence of known concentrations of either hepcidin 25 (Hep 25-open circles) or hepcidin 25 synthesized with a tyrosine substitution at position M21 (Y-Hep 25) and the amount of radioactivity bound to the I-HBD determined. In FIG. 2C sub saturating levels of ^125I-hepcidin were incubated with I-HBD at different temperatures.
The binding of ^125I-hepcidin could be reduced by addition of native non-radioactive hepcidin with an apparent K of approximately 200 nM (FIG. 2B). There was no binding of ^125I-hepcidin to I-HBD at 4° C. and ^125I-hepcidin bound to I-HBD at 37° C. was released when subsequently placed at 4° C. (data not shown).
HBD peptides were immobilized by covalently attaching them to agarose beads. […] The fluid was removed and the radioactivity bound to beads was determined by gamma counting (Perkin/Elmer).

E. coli = assay: Binding of hepcidin to E. coli; settings: low temperature hepcidin dimer; preliminary study
Description: The five amino terminal amino acids of hepcidin were previously shown to be critical for binding of hepcidin to Fpn (7). […] Hepcidin is amphipathic and it is hypothesized that the hydrophobic surface of hepcidin monomers are interacting at 4° C. to form a dimer. Hepcidin, like other defensins, interacts through its hydrophobic surface with bacterial membranes (11).

I-HBD = biological target: T2, I-HBD (Homo sapiens, UniProt Q9NP59); assay: Competition with 125I-labeled hepcidin on HBD-coated 96-well plate; type: binding; settings: 96-well plate, 0, 50, 100, 500 ng hepcidin, room temperature, 4 hours
T2 construct: made in house; host or cells: chemical synthesis
Description: In accordance with the invention, HBD can be used in an assay system to determine levels of hepcidin in a test sample. Accordingly, unlabeled HBD is immobilized on a solid substrate. HBD peptides were immobilized by covalently attaching them to a 96-well plate. Immobilization was performed using Reacti-Bind Amine-binding 96-well plates (Pierce), following the manufacturer's instructions. […] The plates were incubated at room temperature overnight. The peptide solution was then removed from the wells and a protein blocking buffer, such as dry milk in phosphate buffer saline, was added to each well and allowed to sit for two hours at 37° C. The plates were then washed with warm washing buffer to remove unbound material. HBD-coated plates were used in an assay to detect hepcidin as follows: […] The plate was incubated at room temperature for 4 hours. […] (FIG. 7)

[2] = Solubility of the peptide; type: physicochemical; settings: two arginines added at amino and carboxyl terminals
Description: Peptides were synthesized at the DNA/Peptide Core Facility, University of Utah, Salt Lake City, Utah. The peptides were synthesized with two arginines added at the amino and carboxyl terminals. […] Microscope analysis was carried out using an Olympus BX51 microscope (Olympus, Tokyo, Japan). Images were acquired using Picture Frame 2.5 software (Olympus America, East Muskogee, Okla.). All experiments were repeated a minimum of 5 times.

Compound	binding to HBD / I-HBD [1]	binding to E. coli (E. coli)	competition with 125I-labeled hepcidin for binding to I-HBD (I-HBD)	solubility of the peptide [2]
CC[C@H](C)[C@@H]1NC(=O)[C@@H](NC(=O)[C@@H](NC(=O)[C@@H]2CCCN2C(=O)[C@H](Cc2ccccc2)NC(=O)[C@H](Cc2c[nH]cn2)NC(=O)[C@@H](NC(=O)[C@@H](N)CC(=O)O)[C@@H](C)O)[C@@H](C)CC)CSSC[C@@H](C(=O)N[C@@H](CCCCN)C(=O)N[C@H](C(=O)O)[C@@H](C)O)NC(=O)[C@@H]2CSSC[C@@H]3NC(=O)[C@@H]4CSSC[C@H](NC(=O)[C@H](Cc5ccccc5)NC1=O)C(=O)N[C@@H](CSSC[C@H](NC(=O)[C@H](CCCCN)NC(=O)[C@H](CO)NC(=O)[C@H](CCCNC(=N)N)NC(=O)[C@H](Cc1c[nH]cn1)NC3=O)C(=O)NCC(=O)N[C@@H](CCSC)C(=O)N2)C(=O)NCC(=O)N4 [hepcidin]	does bind	cannot bind to E. coli	able to compete for binding to I-HBD	
RRFDCITTGYAYTQGLSGSILSRR [HBD wt]				increased the solubility

From US8530619B2, “Identification of the hepcidin binding site on ferroportin” (University of Utah Research Foundation, priority 2007, dated 2013)
